Reference: patent publication US20240190868A1, “SOS1 INHIBITORS” (Acerand Therapeutics (USA) Limited, priority 2022, published 2024)

system: cellular pERK in NCI-H1975 cells (EGFR/L858R-T790M); test: pERK potency assay (In Cell ELISA); assay type: cell-based; conditions: Homo sapiens, 1 h compound incubation
Source text: The assay measures the ability of a compound to inhibit SOS1 function in cells. SOS1 activates RAS proteins by catalyzing the conversion of RAS GDP to RAS GTP in response to receptor tyrosine kinase activation. Activation of RAS induces a sequence of cellular signaling events that result in increased phosphorylation of ERK at Threonine 202 and Tyrosine 204 (pERK). The procedure (i.e., In Cell ELISA as described below) measures the level of cellular pERK in response to a test compound in NCI-H1975 cells (EGFR/L858R-T790M).
First, NCI-H1975 cells were grown and maintained using media and procedures recommended by the ATCC. A day before compound addition, cells were plated in poly-D-lysine coated 96-well cell culture plates (Corning® BioCoat® Cat #356640) at 25000 cells/well/100 μL and grown overnight in an incubator at 37° C. with 5% CO2. A solution of a test compound was prepared with 3-fold serial dilutions in DMSO having a top concentration of 6 mM. On the day of the assay, 50 μL of a test compound dilution in media was added to each well of cell culture plate with a final compound concentration in the range of 0.001 μM to 20 μM. After addition of the compound, cells were incubated for 1 h at 37° C. with 5% CO2, after which the culture medium was removed. Cells were fixed with 4% formaldehyde in phosphate-buffered saline (PBS) and incubated at RT for 20 min. The plate was washed three times with PBST (PBS with 0.05% Tween®-20), followed by incubation with 100 μL of pre-cooled methanol at −20° C. for 20 min. After incubation, methanol was removed. The plate was again washed with PBST. Cells were then permeabilized with 100 μL/well of 0.1% Triton X-100 in PBS at RT for 20 min and then quenched with a quenching buffer (PBST containing 1% H2O2 and 0.1% sodium azide) for 20 min at RT with gentle shaking. After washing once with PBST, a blocking buffer (250 uL/well, Pierce™ Protein-Free-PBS Blocking Buffer, Cat #37572) was then added to the cells for 1-h incubation at RT, followed by an anti-pERK antibody (cell signaling, 1:1000 dilution in 5% BSA in PBST) incubation overnight at 4° C. and a secondary antibody-HRP (Jackson immunoresearch, 1:3000 dilution in 5% BSA in PBST) incubation at RT for 1 h. PBST wash was carried out after each step three times. Before the addition of a substrate (Advansta ELISABright™), the plate was washed with PBS twice to remove detergent residues. The Cellular pERK level was determined using the microplate reader (Biotek Synergy™ H1) to detect the chemiluminescence signal. IC50 was determined by fitting a 4-parameter sigmoidal concentration-response model.

Compound | IC50
CC(=O)N1CC=C(c2cc3/c(=N/[C@H](C)c4cccc(C(F)(F)F)c4C)ncn(C)c3c(=O)n2C)CC1 [Compound 82, (R,Z)-6-(1-acetyl-1,2,3,6-tetrahydropyridin-4-yl)-1,7-dimethyl-4-((1-(2-methyl-3-(trifluoromethyl)phenyl)ethyl)imino)-1,7-dihydropyrido[3,4-d]pyrimidin-8(4H)-one] | < 100 nM
COc1cc2c(cc1O[C@H]1CCOC1)/c(=N/[C@H](C)c1cccc(C(F)(F)F)c1C)nc(C)n2C [Compound 84, (Z)-7-methoxy-1,2-dimethyl-N—((R)-1-(2-methyl-3-(trifluoromethyl)phenyl)ethyl)-6-(((S)-tetrahydrofuran-3-yl)oxy)quinazolin-4(1H)-imine] | < 100 nM
CC(=O)NCC#Cc1cc2/c(=N/[C@H](C)c3cccc(C(F)F)c3F)nc(C)n(C)c2cn1 [Compound 85, (R,Z)—N-(3-(4-((1-(3-(difluoromethyl)-2-fluorophenyl)ethyl)imino)-1,2-dimethyl-1,4-dihydropyrido[3,4-d]pyrimidin-6-yl)prop-2-yn-1-yl)acetamide] | < 100 nM
CC(=O)N1CCN(C(=O)c2cc3/c(=N/[C@H](C)c4cccc(C(F)F)c4F)nc(C)n(C)c3cn2)CC1 [Compound 89, (R,Z)-1-(4-(4-((1-(3-(difluoromethyl)-2-fluorophenyl)ethyl)imino)-1,2-dimethyl-1,4-dihydropyrido[3,4-d]pyrimidine-6-carbonyl)piperazin-1-yl)ethan-1-one] | < 100 nM
CC(=O)N1CCN2c3cc4/c(=N/[C@H](C)c5cccc(C(F)F)c5F)ncn(C)c4cc3OC[C@H]2C1 [Compound 92, 1-((R,Z)-11-(((R)-1-(3-(difluoromethyl)-2-fluorophenyl)ethyl)imino)-8-methyl-1,2,4a,5,8,11-hexahydropyrazino[1′,2′:4,5][1,4]oxazino[3,2-g]quinazolin-3(4H)-yl)ethan-1-one] | < 100 nM
Cc1n/c(=N\[C@H](C)c2cccc(C(F)F)c2F)c2cc(C3(C(F)F)CC3)ncc2n1C [Compound 94, (R,Z)—N-(1-(3-(difluoromethyl)-2-fluorophenyl)ethyl)-6-(1-(difluoromethyl)cyclopropyl)-1,2-dimethylpyrido[3,4-d]pyrimidin-4(1H)-imine] | < 100 nM
Cc1n/c(=N\[C@H](C)c2cccc(C(F)F)c2F)c2cc(C3=CCN(S(C)(=O)=O)CC3)ncc2n1C [Compound 97, (R,Z)—N-(1-(3-(difluoromethyl)-2-fluorophenyl)ethyl)-1,2-dimethyl-6-(1-(methylsulfonyl)-1,2,3,6-tetrahydropyridin-4-yl)pyrido[3,4-d]pyrimidin-4(1H)-imine] | < 100 nM
CC(=O)NC/C=C/c1cc2/c(=N/[C@H](C)c3cccc(C(F)F)c3F)nc(C)n(C)c2cn1 [Compound 98, N-((E)-3-((Z)-4-(((R)-1-(3-(difluoromethyl)-2-fluorophenyl)ethyl)imino)-1,2-dimethyl-1,4-dihydropyrido[3,4-d]pyrimidin-6-yl)allyl)acetamide] | < 100 nM

Continued, values first:

IC50 | Compound
< 100 nM | Cc1c(C#N)cccc1[C@@H](C)/N=c1\nc(C)n(C)c2cnc(N3CC(F)C3)cc12 [Compound 69]
< 100 nM | Cc1c(C#N)cccc1[C@@H](C)/N=c1\nc(C)n(C)c2cnc(N3CCC3)cc12 [Compound 71]
< 100 nM | Cc1c(C#N)cccc1[C@@H](C)/N=c1\nc(C)n(C)c2cnc(N3CC4CC4C3)cc12 (stereo partly shown) [Compound 72]
< 100 nM | Cc1c(C#N)cccc1[C@@H](C)/N=c1\nc(C)n(C)c2cnc(N3CC(C)(O)C3)cc12 [Compound 73]
< 100 nM | Cc1c(C#N)cccc1[C@@H](C)/N=c1\nc(C)n(C)c2cnc(N3CCOC[C@H]3C)cc12 [Compound 74]
< 100 nM | COC1CN(c2cc3/c(=N/[C@H](C)c4cccc(C#N)c4C)nc(C)n(C)c3cn2)C1 [Compound 76]
< 100 nM | Cc1c([C@@H](C)/N=c2\nc3n(c4cnc(N5CCOCC5)cc24)CCC3)cccc1C(F)(F)F [Compound 77]
< 100 nM | Cc1c([C@@H](C)/N=c2\nc(C)n(C(C)C)c3cnc(N4CCOCC4)cc23)cccc1C(F)(F)F [Compound 78]
< 100 nM | Cc1c([C@@H](C)/N=c2\nc(C)n(C3CC3)c3cnc(N4CCOCC4)cc23)cccc1C(F)(F)F [Compound 79]
< 100 nM | Cc1c([C@@H](C)/N=c2\nc(C)n(C)c3cnc(N4CCn5c(C(F)F)cnc5C4)cc23)cccc1C(F)(F)F [Compound 80, (R,Z)-6-(3-(difluoromethyl)-5,6-dihydroimidazo[1,2-a]pyrazin-7(8H)-yl)-1,2-dimethyl-N-(1-(2-methyl-3-(trifluoromethyl)phenyl)ethyl)pyrido[3,4-d]pyrimidin-4(1H)-imine]
< 100 nM | CC(=O)N1CCC(O)(c2cc3/c(=N/[C@H](C)c4cccc(C(F)(F)F)c4C)ncn(C)c3c(=O)n2C)CC1 [Compound 81, (R,Z)-6-(1-acetyl-4-hydroxypiperidin-4-yl)-1,7-dimethyl-4-((1-(2-methyl-3-(trifluoromethyl)phenyl)ethyl)imino)-1,7-dihydropyrido[3,4-d]pyrimidin-8(4H)-one]
